# From patent publication US20110281896A1, “OPTICALLY PURE QUINAZOLINE COMPOUNDS” (Jiangsu Hansoh Pharmaceutical Co. Ltd, priority 2009, published 2011)
# Experiments:
# A431 = assay: Antitumor activity in vitro, SRB cell proliferation inhibition; type: cell-based; details: 72 h incubation, Logit method
# Method: (§1) Evaluation of Antitumor Activity In Vitro
# (§2) Cell Strains: A431; MCF-7
# (§3) Experiment Design: Cells were incubated with different concentrations of compounds for 72 hours. The inhibition of cell proliferation by the compounds was evaluated by SRB, followed by calculation of the inhibition rate. Then, value of IC50 was calculated by using-Logit method base on the inhibition rate and used to compare in vitro antitumor activity of the compounds.
# (§4) Method for Calculating the Inhibition Rate: Inhibition rate (%)=(OD value of control group−OD value of drug group)/OD value of control group×100%
# MCF-7 = assay: as above; type: cell-based; details: 72 h incubation, Logit method
# Method: as §1, §2, §3, §4
# [1] = system: human lung cancer Calu-3 xenografts; assay: Effect on xenografts in nude mice with lung cancer Calu-3; type: in vivo, BALB/cA-nude mice; details: for Initial Tumor Volume (mm^3) D0: D0 = time of first administration (baseline); for Initial Tumor Volume (mm^3) D0 / Final Tumor Inhibition Rate (%) D16 / % T/C D16 / Relative Tumor Volume D16 / Final Tumor Volume (mm^3) D16 / The Recession/Group / inhibition of growth of human lung cancer Calu-3 (in words): PO QD × 17; for Initial Tumor Volume (mm^3) D0 / Final Tumor Inhibition Rate (%) D16 / % T/C D16 / Relative Tumor Volume D16 / Final Tumor Volume (mm^3) D16 / The Recession/Group: 146.5-146.7 mg/kg; for Initial Tumor Volume (mm^3) D0 / Relative Tumor Volume D16 / Final Tumor Volume (mm^3) D16: mean; for % T/C D16: C = mean tumor volume of drug, control group; for Final Tumor Volume (mm^3) D16: D16 = 17th day after administration; for The Recession/Group: number of mice per group of 6
# Method: Effect of compound 97(±), compound 97, compound 110 and Lapatinib (positive control) on xenografts in nude mice with lung cancer Calu-3 Remark: “±” means the compound is racemic.
# The purpose of the experiment is to evaluate and compare the effect of compound 97(±), compound 97, compound 110, Lapatinib on xenografts in nude mice with lung cancer Calu-3.
# BALB/cA-nude mice, 6-7 weeks, ♀, purchased from ShangHai Slac laboratory animal Co., Ltd.
# Calu-3 cells were injected subcutaneously into nude mice. Animals were divided into groups (d0) randomly after tumors have grown to 150-300 mm^3. Dosage and dosage regimen design can be seen in table 1. Tumors volume was measured 2-3 times per week. Mice were weighed and data were recorded. Calculation formula for tumor volume (V) is as below:
# V=½×a×b^2, wherein, a and b represent length and width respectively.
# [2] = xenografts in nude mice, PO QD × 17, 146.7 mg/kg
structure (smiles),measurement,setting,value
"CN(C)[C@@H](CS(C)(=O)=O)c1ccc(-c2ccc3ncnc(Nc4ccc(OCc5cccc(F)c5)c(Cl)c4)c3c2)o1 [Compound 110, (R)—N-(4-(3-fluorobenzyl-oxy)-3-chlorophenyl)-6-(5-(1-(N,N-dimethyl-amino)-2-(methylsulfonyl)ethyl)-2-yl)quinazolin-4-amine]",IC50,A431; A431 cells,0.768 µM
same,IC50,MCF-7; MCF-7 cells,5.67 µM
same,Initial Tumor Volume (mm^3) D0,[1],249.1 mm^3
same,Final Tumor Inhibition Rate (%) D16,[1],77%
same,% T/C D16,[1],23%
same,Relative Tumor Volume D16,[1],0.8
same,Final Tumor Volume (mm^3) D16,[1],187.4 mm^3
same,The Recession/Group,[1],1
same,inhibition of growth of human lung cancer Calu-3 (in words),[1]; xenografts in nude mice,inhibited the growth of human lung cancer Calu-3 significantly
same,fraction of the tumors in mice caused to shrink,[1]; [2],⅚
same,number of mice with tumor shrinking more than 50% in volume,[1]; [2],one
"CS(=O)(=O)CCNCc1ccc(-c2ccc3ncnc(Nc4ccc(OCc5cccc(F)c5)c(Cl)c4)c3c2)o1 [Lapatinib, reference compound]",IC50,"A431; Homo sapiens, A-431, A431 cells",0.643 µM
same,IC50,"MCF-7; Homo sapiens, MCF7, MCF-7 cells",8.47 µM
same,Initial Tumor Volume (mm^3) D0,[1],262.3 mm^3
same,Final Tumor Inhibition Rate (%) D16,[1],42%
same,% T/C D16,[1],58%
same,Relative Tumor Volume D16,[1],2.0
same,Final Tumor Volume (mm^3) D16,[1],526.5 mm^3
same,The Recession/Group,[1],0
same,inhibition of growth of human lung cancer Calu-3 (in words),[1]; xenografts in nude mice,inhibited the growth of human lung cancer Calu-3 significantly
